These results are taken from patent publication US4022791A (priority 1975, dated 1977).

Where only a bound is given, the exact number is not on record here.

Test [1] has as its system mice. To be noted: mouse, in vivo; for Tail Flick 2 hr (percentage of analgesia response) / Tail Flick .5 hr (percentage of analgesia response): ip.
Test [2] relates to mice. Put plainly: animal or person. In kind it is in vivo, mouse. Particulars: mouse, in vivo, ip.
In test [3] the test system is mice. To be noted: mouse, in vivo; for Hot Plate 2 hr (percentage of mice showing analgesia) / Hot Plate .5 hr (percentage of mice showing analgesia): ip.
The test system of test [4] is Rats. The arrangement: Rat Jump .5 hr (current at which the animal first jumps) / Rat Jump .5 hr, second value printed in parentheses / Rat Jump 2 hr (current at which the animal first jumps): unit not given here. Particulars: in vivo; for Rat Jump 2 hr (current at which the animal first jumps) / Rat Jump .5 hr (current at which the animal first jumps): ip.
Wherever Hot Plate .5 hr (percentage of mice showing analgesia) is given: test concentration or dose not given here.
Wherever Hot Plate 2 hr (percentage of mice showing analgesia) is given: test concentration or dose not given here.
Wherever Tail Flick .5 hr (percentage of analgesia response) is given: test concentration or dose not given here.
Wherever Tail Flick 2 hr (percentage of analgesia response) is given: test concentration or dose not given here.
Wherever Tail Pinch .5 hr (percentage of mice showing analgesia) is given: test concentration or dose not given here.
Wherever Tail Pinch 2 hr (percentage of mice showing analgesia) is given: test concentration or dose not given here.

For `CCC(=O)OC1CCN(CC2=Cc3c(Cl)ccc(OC)c3CC2)CC1`, in test [1], the “Tail Flick 2 hr (percentage of analgesia response)” value was determined as 0 and the “Tail Flick .5 hr (percentage of analgesia response)” value is 20. In test [2], the “Tail Pinch 2 hr (percentage of mice showing analgesia)” value turned out to be 0 and the “Tail Pinch .5 hr (percentage of mice showing analgesia)” value was found to be 0. For the same molecule, in test [3], the “Hot Plate 2 hr (percentage of mice showing analgesia)” value amounted to 0 and the “Hot Plate .5 hr (percentage of mice showing analgesia)” value is given as 0. Also, in test [4], the “Rat Jump 2 hr (current at which the animal first jumps)” value (“Rat Jump 2 hr” below) was determined as 1.2 and the “Rat Jump .5 hr (current at which the animal first jumps)” value (“Rat Jump .5 hr” for short) is given as 1.2.
In the case of `COc1ccc(Cl)c2c1CCC(CN1CCC(O)CC1)=C2`, in test [1], the “Tail Flick 2 hr (percentage of analgesia response)” value was 0 and the “Tail Flick .5 hr (percentage of analgesia response)” value was 0. Further, in test [2], the “Tail Pinch 2 hr (percentage of mice showing analgesia)” value is reported as 0 and the “Tail Pinch .5 hr (percentage of mice showing analgesia)” value came to 0. Besides, in test [3], the “Hot Plate 2 hr (percentage of mice showing analgesia)” value came to 0 and the “Hot Plate .5 hr (percentage of mice showing analgesia)” value came to 0. For the same molecule, in test [4], the “Rat Jump 2 hr” value turned out to be 1.2 and the “Rat Jump .5 hr” value was found to be 1.2.
Regarding `COc1ccc(Cl)c2c1CCC(CN1CCC(C(N)=O)CC1)=C2`, in test [1], the “Tail Flick 2 hr (percentage of analgesia response)” value worked out at 0 and the “Tail Flick .5 hr (percentage of analgesia response)” value is 70. In test [2], the “Tail Pinch 2 hr (percentage of mice showing analgesia)” value is reported as 0 and the “Tail Pinch .5 hr (percentage of mice showing analgesia)” value was 0. For the same molecule, in test [3], the “Hot Plate 2 hr (percentage of mice showing analgesia)” value is listed as 70 and the “Hot Plate .5 hr (percentage of mice showing analgesia)” value worked out at 90. In addition, in test [4], the “Rat Jump 2 hr” value stood at 0.6 and the “Rat Jump .5 hr” value is on record as 0.6.
As for `COc1ccc(Cl)c2c1CCC(CN1CCC(C(N)=O)(N3CCCCC3)CC1)=C2`, in test [4], the “Rat Jump 2 hr” value amounted to 1.6 and the “Rat Jump .5 hr” value was 1.2.
As for `COc1ccc(Cl)c2c1CCC(CN1CCC(C)CC1)=C2`, in test [1], the “Tail Flick 2 hr (percentage of analgesia response)” value came out at 0 and the “Tail Flick .5 hr (percentage of analgesia response)” value is 0. In test [2], the “Tail Pinch 2 hr (percentage of mice showing analgesia)” value is 0 and the “Tail Pinch .5 hr (percentage of mice showing analgesia)” value was found to be 0. Also, in test [3], the “Hot Plate 2 hr (percentage of mice showing analgesia)” value stood at 0 and the “Hot Plate .5 hr (percentage of mice showing analgesia)” value came to 10. In test [4], the “Rat Jump 2 hr” value is given as 1.2 and the “Rat Jump .5 hr” value was 1.2.
With `COc1ccc(Cl)c2c1CCC(CN1CCN(CCO)CC1)=C2`, in test [1], the “Tail Flick 2 hr (percentage of analgesia response)” value was 0 and the “Tail Flick .5 hr (percentage of analgesia response)” value was determined as 10. In test [2], the “Tail Pinch 2 hr (percentage of mice showing analgesia)” value is 0 and the “Tail Pinch .5 hr (percentage of mice showing analgesia)” value came to 40. In test [3], the “Hot Plate 2 hr (percentage of mice showing analgesia)” value was 20 and the “Hot Plate .5 hr (percentage of mice showing analgesia)” value worked out at 50. In addition, in test [4], the “Rat Jump 2 hr” value was 1.2 and the “Rat Jump .5 hr” value came to 1.2.
Regarding `COc1ccc(Cl)c2c1CCC(CN1CCC(O)(c3ccccc3)CC1)=C2`, in test [1], the “Tail Flick 2 hr (percentage of analgesia response)” value is 0 and the “Tail Flick .5 hr (percentage of analgesia response)” value was 30. Also, in test [2], the “Tail Pinch 2 hr (percentage of mice showing analgesia)” value was found to be 0 and the “Tail Pinch .5 hr (percentage of mice showing analgesia)” value amounted to 0. Moreover, in test [3], the “Hot Plate 2 hr (percentage of mice showing analgesia)” value is reported as 0 and the “Hot Plate .5 hr (percentage of mice showing analgesia)” value was 50. Moreover, in test [4], the “Rat Jump 2 hr” value stood at 1.2 and the “Rat Jump .5 hr” value amounted to 1.2.
As for `COc1ccc(N2CCN(CC3=Cc4c(Cl)ccc(OC)c4CC3)CC2)cc1`, in test [1], the “Tail Flick 2 hr (percentage of analgesia response)” value was found to be 0 and the “Tail Flick .5 hr (percentage of analgesia response)” value came to 0. In test [2], the “Tail Pinch 2 hr (percentage of mice showing analgesia)” value came out at 0 and the “Tail Pinch .5 hr (percentage of mice showing analgesia)” value is listed as 0. In test [3], the “Hot Plate 2 hr (percentage of mice showing analgesia)” value was found to be 0 and the “Hot Plate .5 hr (percentage of mice showing analgesia)” value was 0. For the same molecule, in test [4], the “Rat Jump 2 hr” value was found to be 1.2 and the “Rat Jump .5 hr” value is 1.2.
With `CCOC(=O)N1CCN(CC2=Cc3c(Cl)ccc(OC)c3CC2)CC1`, in test [1], the “Tail Flick 2 hr (percentage of analgesia response)” value is 0 and the “Tail Flick .5 hr (percentage of analgesia response)” value is listed as 40. In test [2], the “Tail Pinch 2 hr (percentage of mice showing analgesia)” value is 0 and the “Tail Pinch .5 hr (percentage of mice showing analgesia)” value is recorded as 0. In test [3], the “Hot Plate 2 hr (percentage of mice showing analgesia)” value worked out at 40 and the “Hot Plate .5 hr (percentage of mice showing analgesia)” value is reported as 70. For the same molecule, in test [4], the “Rat Jump 2 hr” value was found to be 1.2 and the “Rat Jump .5 hr” value came out at 1.2.
For `CNC(=O)C1CCN(CC2=Cc3c(Cl)ccc(OC)c3CC2)CC1`, in test [1], the “Tail Flick 2 hr (percentage of analgesia response)” value was 0 and the “Tail Flick .5 hr (percentage of analgesia response)” value is 40. For the same molecule, in test [2], the “Tail Pinch 2 hr (percentage of mice showing analgesia)” value came out at 0 and the “Tail Pinch .5 hr (percentage of mice showing analgesia)” value was determined as 0. Moreover, in test [3], the “Hot Plate 2 hr (percentage of mice showing analgesia)” value turned out to be 0 and the “Hot Plate .5 hr (percentage of mice showing analgesia)” value amounted to 60. Also, in test [4], the “Rat Jump 2 hr” value was 1.2 and the “Rat Jump .5 hr” value worked out at 1.2.
As to `COc1ccc(Cl)c2c1CCC(CN1CCCC(C(N)=O)C1)=C2` (centres unmarked), in test [1], the “Tail Flick 2 hr (percentage of analgesia response)” value turned out to be 0 and the “Tail Flick .5 hr (percentage of analgesia response)” value worked out at 0. Moreover, in test [2], the “Tail Pinch 2 hr (percentage of mice showing analgesia)” value is 0 and the “Tail Pinch .5 hr (percentage of mice showing analgesia)” value came to 0. Besides, in test [3], the “Hot Plate 2 hr (percentage of mice showing analgesia)” value is 0 and the “Hot Plate .5 hr (percentage of mice showing analgesia)” value was determined as 0. Also, in test [4], the “Rat Jump 2 hr” value was found to be 2.2 and the “Rat Jump .5 hr” value stood at 1.6.
`COc1ccc(Cl)c2c1CCC(CN1CCC(O)(c3ccc(Cl)cc3)CC1)=C2`: in test [1], the “Tail Flick 2 hr (percentage of analgesia response)” value is 0 and the “Tail Flick .5 hr (percentage of analgesia response)” value came out at 0. Also, in test [2], the “Tail Pinch 2 hr (percentage of mice showing analgesia)” value came out at 0 and the “Tail Pinch .5 hr (percentage of mice showing analgesia)” value amounted to 0. In test [3], the “Hot Plate 2 hr (percentage of mice showing analgesia)” value amounted to 0 and the “Hot Plate .5 hr (percentage of mice showing analgesia)” value was found to be 20. For the same molecule, in test [4], the “Rat Jump 2 hr” value worked out at 1.6 and the “Rat Jump .5 hr” value came out at 1.2.
Regarding `COc1ccc(Cl)c2c1CCC(CN1CCN(C)CC1)=C2`, in test [1], the “Tail Flick 2 hr (percentage of analgesia response)” value was 0 and the “Tail Flick .5 hr (percentage of analgesia response)” value is on record as 30. Further, in test [2], the “Tail Pinch 2 hr (percentage of mice showing analgesia)” value is reported as 0 and the “Tail Pinch .5 hr (percentage of mice showing analgesia)” value is reported as 80. In addition, in test [3], the “Hot Plate 2 hr (percentage of mice showing analgesia)” value stood at 0 and the “Hot Plate .5 hr (percentage of mice showing analgesia)” value was determined as 60. Further, in test [4], the “Rat Jump 2 hr” value is reported as 1.2 and the “Rat Jump .5 hr” value came out at 1.2.
As for `COc1ccc(Cl)c2c1CCC(CN1CCN(c3ccc(Cl)cc3)CC1)=C2`, in test [1], the “Tail Flick 2 hr (percentage of analgesia response)” value amounted to 0 and the “Tail Flick .5 hr (percentage of analgesia response)” value stood at 0. Moreover, in test [2], the “Tail Pinch 2 hr (percentage of mice showing analgesia)” value turned out to be 0 and the “Tail Pinch .5 hr (percentage of mice showing analgesia)” value is reported as 0. Also, in test [3], the “Hot Plate 2 hr (percentage of mice showing analgesia)” value amounted to 0 and the “Hot Plate .5 hr (percentage of mice showing analgesia)” value came out at 10. For the same molecule, in test [4], the “Rat Jump 2 hr” value turned out to be 1.2 and the “Rat Jump .5 hr” value is given as 1.2.
For `CCOC1(c2ccccc2)CCN(CC2=Cc3c(Cl)ccc(OC)c3CC2)CC1`, in test [1], the “Tail Flick 2 hr (percentage of analgesia response)” value is given as 0 and the “Tail Flick .5 hr (percentage of analgesia response)” value amounted to 10. In test [2], the “Tail Pinch 2 hr (percentage of mice showing analgesia)” value is recorded as 20 and the “Tail Pinch .5 hr (percentage of mice showing analgesia)” value is 0. Also, in test [3], the “Hot Plate 2 hr (percentage of mice showing analgesia)” value amounted to 0 and the “Hot Plate .5 hr (percentage of mice showing analgesia)” value stood at 50. In addition, in test [4], the “Rat Jump 2 hr” value is recorded as 1.2 and the “Rat Jump .5 hr” value was found to be 1.2.
On to `COc1ccc(Cl)c2c1CCC(CN1CCC(c3ccccc3)CC1)=C2`, for which, in test [1], the “Tail Flick 2 hr (percentage of analgesia response)” value is reported as 0 and the “Tail Flick .5 hr (percentage of analgesia response)” value is recorded as 0. In addition, in test [2], the “Tail Pinch 2 hr (percentage of mice showing analgesia)” value is 0 and the “Tail Pinch .5 hr (percentage of mice showing analgesia)” value amounted to 0. For the same molecule, in test [3], the “Hot Plate 2 hr (percentage of mice showing analgesia)” value is 0 and the “Hot Plate .5 hr (percentage of mice showing analgesia)” value worked out at 30. In addition, in test [4], the “Rat Jump 2 hr” value is recorded as 1.2 and the “Rat Jump .5 hr” value came to 1.2.
Regarding `COc1ccc(Cl)c2c1CCC(CN1CCN(c3cccc(C(F)(F)F)c3)CC1)=C2`, in test [1], the “Tail Flick 2 hr (percentage of analgesia response)” value amounted to 0 and the “Tail Flick .5 hr (percentage of analgesia response)” value is given as 0. Moreover, in test [2], the “Tail Pinch 2 hr (percentage of mice showing analgesia)” value stood at 0 and the “Tail Pinch .5 hr (percentage of mice showing analgesia)” value is reported as 0. Also, in test [3], the “Hot Plate 2 hr (percentage of mice showing analgesia)” value is reported as 0 and the “Hot Plate .5 hr (percentage of mice showing analgesia)” value was 10. Further, in test [4], the “Rat Jump 2 hr” value amounted to 1.2 and the “Rat Jump .5 hr” value is recorded as 1.2.
As for `COc1ccc(Cl)c2c1CCC(CN1CCC(C(=O)N(C)C)CC1)=C2`, in test [4], the “Rat Jump 2 hr” value worked out at 1.2 and the “Rat Jump .5 hr” value is 1.2.
Regarding `COc1ccc(Cl)c2c1CCC(CN1CCC(C(=O)N3CCOCC3)CC1)=C2`, in test [4], the “Rat Jump 2 hr” value came to 1.2 and the “Rat Jump .5 hr” value is on record as 1.2.
As to `CN1CC[C@]23c4c5ccc(O)c4O[C@H]2[C@@H](O)C=C[C@H]3[C@H]1C5.O=S(=O)(O)O` [Morphine Sulfate, reference compound], in test [1], the “Tail Flick 2 hr (percentage of analgesia response)” value is recorded as 100 and the “Tail Flick .5 hr (percentage of analgesia response)” value was determined as 100. In addition, the “Rat Jump .5 hr” value in test [4] is greater than 2.2.
As for `COc1ccc(Cl)c2c1CCC(CN1CCCC1)=C2C` [reference compound], in test [1], the “activity in the Tail Flick test” value is “marginal activity”. Further, the “activity in the Hot Plate test” value in test [3] is listed as “marginal activity”. Also, in test [4], the “activity in the Rat Jump Test” value was “inactive”.
